Tests used:
[1] = test system: human acute myeloid leukemia cell line, HL60; assay: Involvement of 67LR (anti-67LR antibody MLuc5) in cell-killing and cytostatic activity, HL60; type: cell-based; details: HL60, 96-well; vardenafil 5 μM, EGCG 5 μM; 96 hours; without anti-67LR antibody (isotype control mouse IgM)
Protocol: A trypan blue staining solution was prepared by suspending trypan blue in PBS at a concentration of 1% and was used in investigation of the anti-cancer activity of a combination of EGCG and vardenafil by trypan blue assay. The PBS used was prepared by dissolving 8.0 g of NaCl, 0.2 g of KCl, 1.15 g of Na2HPO4, and 0.2 g of KH2PO4 in 1 L of ultrapure water, followed by autoclave sterilization.
A human multiple myeloma cell line, U266, and a human acute myeloid leukemia cell line, HL60, adjusted to be 5×10^4 cells/mL (U266) and 1×10^4 cells/mL (HL60), respectively, in an RPMI 1640 medium supplemented with 1% FCS were seeded in a 96-well plate (Falcon Co., Ltd.). Vardenafil was added thereto at a final concentration of 5 μM. Immediately after the addition, an anti-67LR monoclonal antibody, MLuc5 (Abcam PLC), was added thereto at a final concentration of 20 μg/mL. In the group of adding an isotype control antibody, mouse IgM (Cosmo Bio Co., Ltd., Tokyo) was added at a final concentration of 20 μg/mL. […]
(§1) The plate was returned to the incubator immediately after the addition of EGCG, followed by culturing for 96 hours. […] After 10 minutes, the number of the cells was counted with a hemocytometer. Unstained cells were deemed as viable cells, and the cell viability was determined as a ratio of the number of unstained cells in trypan blue staining to the total number of cells. […]

[2] = test system: human acute myeloid leukemia cell line, HL60; assay: Trypan blue cell viability and viable cell count, HL60; type: cell-based; details: vardenafil 5 μM, EGCG 5 μM added after 3 hours, 96 hours
Protocol: A human multiple myeloma cell line, U266, was subcultured in an RPMI 1640 medium (NISSUI PHARMACEUTICAL Co. LTD., Tokyo) supplemented with 10% fetal calf serum (FCS) (BIOLOGICAL INDUSTRIES) at 37° C. under vapor-saturated 5% CO2 conditions. The cells were cultured in the logarithmic growth phase. A human acute myeloid leukemia cell line, HL60, was subcultured in an RPMI 1640 medium supplemented with 10% fetal calf serum (FCS) at 37° C. under vapor-saturated 5% CO2 conditions. The cells were cultured in the logarithmic growth phase. […]
as §1, with “hemocytometer (Becton, Dickinson and Company).” for “hemocytometer.”

(−)-epigallocatechin-3-O-gallate [EGCG]
cell viability (cell-killing activity) [1]: any cytotoxicity was not observed | cell viability (cell-killing activity) [2]: any cytotoxicity was not observed
